Experimental data published in PubChem BioAssay (NCI).
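Interpolation was linear, between the two tested concentrations surrounding the appropriate level; five concentrations were tested over 48 hours in 96-well plates. GI50 marks 50% less growth. TGI marks complete inhibition of growth.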

Assays:
Assay in all cases: NCI tumour cell line growth inhibition, 48 h
IGROV1 ovarian = test system: IGROV1 ovarian
M14 melanoma = test system: M14 melanoma
786-0 renal = test system: 786-0 renal
UACC-62 melanoma = test system: UACC-62 melanoma
MDA-MB-231 breast = test system: MDA-MB-231 breast
SK-MEL-28 melanoma = test system: SK-MEL-28 melanoma
MDA-MB-435 = test system: MDA-MB-435
SF-295 CNS = test system: SF-295 CNS
SNB-75 CNS = test system: SNB-75 CNS
HOP-92 NSCLC = test system: HOP-92 NSCLC
KM20L2 colon = test system: KM20L2 colon
SNB-78 CNS = test system: SNB-78 CNS
DLD-1 colon = test system: DLD-1 colon
SF-539 CNS = test system: SF-539 CNS
M19-MEL melanoma = test system: M19-MEL melanoma
HL-60(TB) leukemia = test system: HL-60(TB) leukemia

Row | Compound | TGI (IGROV1 ovarian) [µM] | TGI (M14 melanoma) [µM] | TGI (786-0 renal) [µM] | TGI (UACC-62 melanoma) [µM] | TGI (MDA-MB-231 breast) [µM] | TGI (SK-MEL-28 melanoma) [µM] | TGI (MDA-MB-435) [µM] | TGI (SF-295 CNS) [µM] | TGI (SNB-75 CNS) [µM] | TGI (HOP-92 NSCLC) [µM] | TGI (KM20L2 colon) [µM] | TGI (SNB-78 CNS) [µM] | TGI (DLD-1 colon) [µM] | TGI (SF-539 CNS) [µM] | TGI (M19-MEL melanoma) [µM] | TGI (HL-60(TB) leukemia) [µM] | GI50 (IGROV1 ovarian) [µM] | GI50 (M14 melanoma) [µM] | GI50 (SF-539 CNS) [µM] | GI50 (MDA-MB-435) [µM]
1 | Cc1ccc(S(=O)(=O)OC2C(C3COC(C)(C)O3)OC3OC(C)(C)OC32)cc1 (centres undefined) | > 100 | > 100 | > 100 | > 100 | > 100 | > 100 | > 100 | > 100 | > 100 | > 100 |  |  |  |  |  |  |  |  |  | 
2 | Clc1c(Cl)c2c(Cl)c(Cl)c1C[P+](c1ccccc1)(c1ccccc1)CC[P+](c1ccccc1)(c1ccccc1)Cc1c(Cl)c(Cl)c(c(Cl)c1Cl)C[P+](c1ccccc1)(c1ccccc1)CC[P+](c1ccccc1)(c1ccccc1)C2 | 12.4 | 16.2 | 19.5 |  |  | 5.13 |  | 12.6 | 14.2 | 6.31 | 12.9 | 18.9 | 13.2 | 16.2 | 9.91 |  |  |  |  | 
3 | Cc1ccc(-c2csc(=Nc3c(C)n(C)n(-c4ccccc4)c3=O)n2CCO)cc1 |  | > 100 |  | > 100 | > 100 | > 100 | > 100 | > 100 | > 100 | > 100 |  |  |  | > 100 |  | > 100 |  |  |  | 
4 | Cn1c(-c2ccc(/C=N\N3CCN(/N=C/c4ccc(-c5c[n+]6ccsc6n5C)cc4)CC3)cc2)c[n+]2ccsc12 | > 100 | > 100 | > 100 | 95.7 | 78.5 |  | > 100 | > 100 | 93.1 | > 100 |  |  |  | > 100 |  | 48.3 |  |  |  | 
5 | O=[n+]1c2ccccc2n([O-])c2cc(Br)ccc21 | 18.8 | > 100 | > 100 | 55.6 | > 100 | > 100 | 36.5 | 46.4 | 77.7 |  |  |  |  | 37.5 |  | 7.56 |  |  |  | 
6 | CC(C)[C@](O)(C(=O)OCC1CC[N+]2([O-])CC[C@@H](O)C12)[C@H](C)O (some centres undefined) | > 375 |  |  | > 375 |  | > 375 |  | > 375 | > 161 | > 375 | > 375 | > 375 | > 375 | > 375 | > 375 | > 375 |  |  |  | 
7 | CC#C[I+]c1ccccc1 | > 100 | 37.1 | 28.4 | 57.6 |  | 50.4 |  | > 100 | > 100 | 30.8 | 36.1 | 54.5 | 30.2 | 35.1 | 45 | 33.8 |  |  |  | 
8 | COc1cc2c3c(n(CCCNCCCNCCCn4c5c(c6ccccc6c4=O)C(=O)c4ccccc4-5)c(=O)c2cc1OC)-c1cc2c(cc1C3=O)OCO2 | > 100 | 2.15 | 1.07 |  |  |  | 1.68 |  |  |  |  |  |  |  |  |  | < 0.01 | 0.987 | < 0.01 | 0.154
9 | CCCCN1C(=O)NC(Cc2ccccc2)C1=O (centres undefined) |  | > 100 |  |  |  | > 100 |  | > 100 | > 100 |  | > 100 | > 100 | > 100 | > 100 | > 100 |  |  |  |  | 
10 | CC(C)(C)C(=O)C(C(c1ccccc1)N1CCOCC1)N1CCOCC1 (centres undefined) | > 100 | > 100 | > 100 | > 100 | > 100 | > 100 | > 100 | > 100 | > 100 | > 100 |  |  |  |  |  |  |  |  |  | 
11 | CCO[C@]12C[C@H](OC)[C@@]3(O)CC(C1[C@H]3O)C13C4C2[C@H](OC)C1[C@](COC)(CN4CC)[C@H](O)C[C@@H]3OC (some centres undefined) | > 100 | > 100 |  | > 100 |  | > 100 |  |  |  |  | > 100 | > 100 | > 100 | > 100 | > 100 | > 100 |  |  |  | 
12 | COc1ccc(N2C(=O)C3c4[nH]c5cccc(C)c5c4C4CCC(C(C)(C)C)CC4C3C2=O)cc1 (centres undefined) | > 10 | > 10 |  | > 10 | > 10 | > 10 | > 10 | > 10 | > 10 |  |  |  |  | > 10 |  | > 10 |  |  |  | 
13 | CCCCCCCCCCCCCCCCOCC(COP(=O)([O-])OCC[N+](C)(C)C)OCCCCCCCCCCCCCCCC (centres undefined) | > 100 |  |  | > 100 |  | > 100 |  | > 100 | > 100 | > 100 | > 100 | > 100 | > 100 | > 100 | > 100 | > 100 |  |  |  | 
